pIC50: −log10 of the molar value.
Key:
clot-bound fXa = molecular target: T1, clot-bound fXa (Homo sapiens, UniProt P00742); test: inhibition of plasma clot-bound factor Xa (Methods M1, M2); type: biochemical; conditions: text b187, well below
T1 construct: from tissue; host or cells: clot of recalcified human platelet-rich plasma
Protocol: Plasma-clot was obtained by recalcificating platelet-rich human plasma, and fibrin gel by clotting human fibrinogen with human thrombin. For the activity measures of fXa and thrombin Z-D-Arg-Gly-Arg-pNA or Tos-Gly-Pro-Arg-pNA substrates were used in agreement with Methods M1-M3.
Preparation of Clots from Human Plasma
a) Platelet-rich plasma is prepared by centrifuging a 9:1 mixture of human blood and 3.8% sodium citrate solution for 5 min. at 240×g.
b) 200 μl platelet-rich plasma and 80 μl 40 mM CaCl2 solution are allowed to stand at room temperature for 1 hour. The thus-formed clot is washed with 6×2 ml of 0.9% NaCl solution with gentle stirring to remove the residual enzymes (thrombin and factor Xa). The washing medium is assayed for thrombin-like activity as follows:
c) To 400 μl of washing medium 100 μl of 1 mM Tos-Gly-Pro-Arg-pNA substrate solution is added, the mixture is incubated for 30 min at 37° C., then the reaction is stopped with 100 μl of 50% acetic acid. From this mixture 150 μl aliquots are applied onto a 96-well microtitre plate and the extinction coefficients are measured at 405 nm (ELISA READER SLT Laborinstrument GmbH, Austria). […]
c) From each reaction vessel 150 μl is applied onto a 96 well microtitre plate and extinction coefficients are measured at 405 nm (ELISA READER SLT Laborinstrument GmbH, Austria). […]

urokinase (UK) = urokinase (UK) (Homo sapiens, UniProt P00749); test: fibrin-plate method, plasmin formation induced by urokinase; type: biochemical
Excerpt: (§1) The inhibitory effect of the new compounds of the invention on plasmin (PL) as well as on plasmin formation induced by tissue plasminogen activator (tPA) and urokinase (UK) was examined by the fibrin-plate method [D. Bagdy et al.: Thromb. Haemost. 67, 325 (1992)]. Compounds C1 and C5 served as controls. […] V. Jackson et al.: J. Cardiovasc. Pharmacol. 21, 587 (1993))]. In Table 4 the results obtained with the new compounds 1 and 2 as well as those with controls C1 and C5 are presented as an example.

[1] = system: New Zealand white rabbits; test: ex vivo whole blood clotting time (WBCT) in rabbits after p.o. dosing; design: species or system rabbit; conditions: p.o. 5 mg/kg
Protocol: (§2) The anticoagulant and platelet aggregation inhibiting effect of the compounds of general formula (I) was studied in New Zealand white rabbits ex vivo according to D. Bagdy et al. [Thromb. Haemost. 67, 357 (1992)]. The compounds were dissolved in buffered isotonic saline solution and administered i.v. (0,04-5.0 mg/kg) or by infusion (0.25-5.0 mg/kg/h) or subcutaneously (0.5-6.0 mg/kg) or p.o. (2.5-20 mg/kg). The effect of the compounds was detectable already within 30 minutes following p.o. administration, peak values were attained after 60-180 minutes and the therapeutic level was maintained dose-dependently for 3→6 hours.
(§3) The in vivo effect of ethoxycarbonyl-3-cyclobutyl-D-alanyl-L-prolyl-L-arginine aldehyde (1) is presented in detail in Tables 6 and 7. The corresponding values of C1 are listed as controls. The compound was administered p.o. in doses of 5 mg/kg. The blood samples drawn from the caudal vein in every 30-60 minutes were analysed. The whole blood clotting time (WBCT) and the inhibition of thrombin-induced blood platelet aggregation (PAI) were determined. The activated partial thromboplastin time (APTT) and the thrombin time (TT) in the citrate plasma obtained from the blood sample were also measured. The APTT and TT values are compiled in Table 6 and the WBCT and PAI values in Table 7.

plasmin (PL) = plasmin (PL) (Homo sapiens, UniProt P00747); test: fibrin-plate method, plasmin; type: biochemical
plasmin (PL), sequence (P00747 581-810 limits assumed, species assumed): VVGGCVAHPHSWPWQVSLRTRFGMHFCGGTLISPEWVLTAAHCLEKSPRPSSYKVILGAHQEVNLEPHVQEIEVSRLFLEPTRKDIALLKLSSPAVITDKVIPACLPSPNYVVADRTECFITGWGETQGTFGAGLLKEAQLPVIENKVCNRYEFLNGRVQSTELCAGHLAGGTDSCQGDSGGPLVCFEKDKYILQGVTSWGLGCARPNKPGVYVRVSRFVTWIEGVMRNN
plasmin (PL), sequence (P00747 97-580 partner limits assumed, species assumed): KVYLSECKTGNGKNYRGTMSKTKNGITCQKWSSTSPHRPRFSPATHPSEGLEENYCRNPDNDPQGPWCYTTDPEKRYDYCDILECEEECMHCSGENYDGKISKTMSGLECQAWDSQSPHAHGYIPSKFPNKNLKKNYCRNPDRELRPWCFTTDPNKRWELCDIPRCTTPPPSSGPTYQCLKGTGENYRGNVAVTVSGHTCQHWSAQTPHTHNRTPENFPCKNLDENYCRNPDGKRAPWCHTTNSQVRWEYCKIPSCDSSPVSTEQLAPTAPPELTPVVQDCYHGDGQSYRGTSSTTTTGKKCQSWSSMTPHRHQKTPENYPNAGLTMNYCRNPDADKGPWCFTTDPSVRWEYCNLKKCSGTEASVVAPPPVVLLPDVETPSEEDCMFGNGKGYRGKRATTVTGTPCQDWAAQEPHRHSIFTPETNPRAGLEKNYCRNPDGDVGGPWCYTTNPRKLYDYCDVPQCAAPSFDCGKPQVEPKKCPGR
Excerpt: as §1

[2] = system: New Zealand white rabbits; test: ex vivo APTT in citrate plasma of rabbits after p.o. dosing; design: species or system rabbit; conditions: p.o. 5 mg/kg
Protocol: as §2, §3

[3] = fibrin plate, hydrolysed area reduced to 50% of control
[4] = related to the activity of C1 (1/IC50 = 1)

T1 sequence (P00742 235-488 limits assumed): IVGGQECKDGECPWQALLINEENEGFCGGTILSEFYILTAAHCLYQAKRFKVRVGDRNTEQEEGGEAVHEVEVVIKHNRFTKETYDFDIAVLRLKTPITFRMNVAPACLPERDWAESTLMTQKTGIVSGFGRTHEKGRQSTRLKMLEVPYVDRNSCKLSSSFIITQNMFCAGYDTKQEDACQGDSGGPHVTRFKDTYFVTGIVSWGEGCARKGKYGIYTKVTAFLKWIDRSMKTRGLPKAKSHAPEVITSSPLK
T1 sequence (P00742 41-179 partner limits assumed): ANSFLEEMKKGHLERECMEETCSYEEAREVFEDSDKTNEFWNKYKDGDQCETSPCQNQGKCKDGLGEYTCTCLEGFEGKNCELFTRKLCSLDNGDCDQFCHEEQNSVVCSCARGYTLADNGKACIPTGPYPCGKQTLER

Q: What does the source list for `CCOC(=O)N[C@H](CC1CCC1)C(=O)N1CCC[C@H]1C(=O)N[C@H](C=O)CCCNC(=N)N` [Example 1, Ethoxycarbonyl-3-cyclobutyl-D-alanyl-L-prolyl-L-arginine aldehyde]?
A: pIC50 (clot-bound fXa): > 6.00; pIC50 (urokinase (UK); [3]): 3.92; B: relative efficiency, UK (urokinase (UK); [4]): 0.7; activity against UK, times lower than that of compound C5 (urokinase (UK); text b147, third of three enzymes): 39 times; WBCT relative clotting time ([1]; 0 min): 1.0; WBCT relative clotting time ([1]; 30 min): 1.52 ± 0.22; WBCT relative clotting time ([1]; 45 min): 1.58 ± 0.17; WBCT relative clotting time ([1]; 60 min): 1.88 ± 0.45; WBCT relative clotting time ([1]; 90 min): 1.73 ± 0.33; WBCT relative clotting time ([1]; 120 min): 1.98 ± 0.30; WBCT relative clotting time ([1]; 180 min): 1.43 ± 0.13; WBCT relative clotting time ([1]; 240 min): 1.12 ± 0.24; WBCT relative clotting time ([1]; 300 min): 1.18 ± 0.08; pIC50 (plasmin (PL); [3]): 4.41; B: relative efficiency, PL (plasmin (PL); [4]): 1.4; activity against PL, times lower than that of compound C5 (plasmin (PL); text b147, first of three enzymes): 3.2 times; APTT relative clotting time ([2]; 0 min): 1.0; APTT relative clotting time ([2]; 30 min): 1.73 ± 0.47; APTT relative clotting time ([2]; 45 min): 1.84 ± 0.50; APTT relative clotting time ([2]; 60 min): 1.94 ± 0.51; APTT relative clotting time ([2]; 90 min): 1.92 ± 0.31; APTT relative clotting time ([2]; 120 min): 1.75 ± 0.26; APTT relative clotting time ([2]; 180 min): 1.59 ± 0.12; APTT relative clotting time ([2]; 240 min): 1.38 ± 0.08; APTT relative clotting time ([2]; 300 min): 1.28 ± 0.08

Source: patent US6235707A, “Anticoagulant peptidyl-arginine aldehyde derivatives” (Gyogyszerkutato Intezet Kft., priority 1996, dated 2001)
